Results from patent publication US10501800B2, “Breast cancer prognosis” (Regents of the University of Minnesota, priority 2012, dated 2019).
Entries after “also recorded” stand apart in the source; their conditions may differ.

What was measured:
[1] = system: breast cancer; conditions: in vivo; cited from earlier work
[2] = system: PR target genes in T47D cells expressing WT PR, SUMO-deficient PR (KR) or empty vector; test: Gene expression profiling (Illumina HT-12v4) of T47D cell lines treated with progesterone or antiprogestins; type: cell-based, human
Protocol: T47D cells stably expressing pIRES-neo3 empty vector, WT or KR PR were serum starved in modified IMEM (Gibco, catalog #A10488) for 1 day, treated with R5020 (10^−8 M) or vehicle control for 6 h before RNA extraction using a RNeasy kit (QIAgen, catalog #74104). Six h of progestin treatment allowed for substantial PR-dependent gene expression as compared to prior studies (Jacobsen et al., 2005; Richer et al., 2002). DNase I treated (QIAgen, catalog #79254) RNA samples from duplicate experiments were prepared for expression analysis using the Illumina HT-12v4 bead chip platform according to manufacture's protocols. Data were analyzed within R software using the Bioconductor (Gentleman et al., 2004) package called lumi where raw intensities were log2 transformed and quantile normalized. Differentially expressed genes were analyzed using the limma package, where empirical Bayes was used to better estimate the variance of the genes. Gene expression data presented contain log2 normalized intensities and biological comparisons presented (e.g. R5020/vehicle) contain log2 fold change with the Benjamini and Hochberg (BH) adjusted P value (Benjamini and Hochberg, 1995). To generate the heat map in FIG. 1C, unsupervised hierarchical clustering of genes was carried out using heatmap. 2 function in the R package gplots. Clustering was performed using Euclidean distance and complete linkage. Rows were scaled to have mean zero and standard deviation equal to one.
Gene expression profiles in T47D cell lines treated with antiprogestins were obtained using identical methods as described above, except for these notable differences. After serum starvation, cells stably expressing empty vector, WT, or KR PR were treated for 6 hours under one of eight possible conditions: (1) ethanol (vehicle control), (2) progesterone (10^−8 M), (3) RU486 (10^−7 M), (4) aglepristone (10^−7 M), (5) onapristone (10^−7 M), (6) RU486 (10^−7 M) plus progesterone (10^−8 M), (7) aglepristone (10^−7 M) plus progesterone (10^−8 M), or (8) onapristone (10^−7 M) plus progesterone (10^−8 M). Gene expression levels were measured, normalized, analyzed, and heat maps were generated using the methods described above.
Raw microarray data from two independent microarray experiments (both performed using the Illumina HT-12v4 platform described above) were combined and normalized together within R software using the Bioconductor (Gentleman et al., 2004) package called lumi where raw intensities were log 2 transformed and quantile normalized.
Sample Sizes & Composition: For the first analysis, two KR cell replicates were used that had been stimulated with R5020 a synthetic progestin in the first experiment and three KR cell replicates that had been stimulated with progesterone in the second experiment. The same was accomplished regarding the corresponding WT cell replicates. Pertaining to the first analysis, therefore, a sample size of n=5 was used for each of the two groups (KR & WT). Regarding the second analysis, we used three KR cell replicates that had been co-treated with progesterone plus onapristone in the second experiment; and we used three WT cell replicates that had been co-treated with progesterone plus onapristone also in the second experiment (n=3 for each of the two groups). Regarding the third analysis, we used three KR cell replicates that had been co-treated with progesterone plus RU486 in the second experiment; and we used three WT cell replicates that had been co-treated with progesterone plus RU486 also in the second experiment (n=3 for each of the two groups). Regarding the fourth analysis, three KR cell replicates was used that had been co-treated with progesterone plus onapristone; and three WT cell replicates were used that had been treated with vehicle control (ethanol) (n=3 for each of the two groups). […]

[3] = system: BT-474 cells; test: MTT proliferation assay in BT-474 cells; type: cell-based, human; conditions: MTT assays over six days in vitro; data not shown
Protocol: Cell proliferation was measured using MTT assays (3-[4,5-dimethylthiazol-2-yl]-2,5-diphenyltetrazolium bromide, Sigma catalog #M2128). In 24-well plates, 1×10^4 cells/well were plated in cMEM (inducible PR expression was induced with AP21967 (10^−9 M) for 2 days), cells were washed and steroid starved in modified IMEM supplemented with 5% dextran-coated charcoal-treated (DCC) FBS for 1 day before the addition of R5020 (10^−8 M). At days 0, 2, 4, 6, cell proliferation was determined by adding 60 ul MTT (5 mg/ml) to each 0.5 ml cell culture well for 3 hours, medium was carefully removed and solublization solution (90% v/v DMSO/PBS) was added to lyse the cells. Lysate absorbance (650 and 570 nm) was measured using a plate reader. 650 nm measurements were subtracted from 570 nm measurements and sample means were normalized to day zero.

[4] = system: PR target genes (CHN2, RGS2, ACOT6) in BT-474 human breast cancer cells; test: RT-qPCR of PR target genes in BT-474 cells, with or without MEK inhibitor; type: cell-based; conditions: R5020 10^−8 M plus RU486 10^−7 M, 6 h
Protocol: For reverse transcription quantitative polymerase chain reaction (RT-qPCR) assays, 5×10^5 cells/well were plated in 6-well dishes, serum starved in modified IMEM for 1 day before treatments (see individual figures). RNA was extracted using TriPure reagent (Roche, catalog #11667157001) and cDNA was created using the Transcriptor cDNA first-strand cDNA synthesis kit (Roche, catalog #04897030001). Relative expression levels were determined by qPCR assays performed on a Roche LightCycler II using SYBR green master-mix (Roche, catalog #04887352001). Target gene quantification levels were normalized to the expression of standard housekeeper genes: TBP, ACTB, and/or GAPDH. For cells expressing inducible PR, the protocol was the same as above, except prior to ligand treatments, the cells were induced with AP21967 (10^−9 M) for 2 d.
For experiments using MEK inhibitors, BT-474 cells were plated in […] dishes at 5×10^5 cells/well. One day later, the cells were washed and serum starved in modified IMEM for 1d. These cells were pre-treated with the MEK inhibitor U0126 (5 uM, EMD Chemicals, catalog #662005) for 30 min R5020 (10^−8 M) and/or RU486 (10^−7 M) was then added to cell culture wells for 6 h before RNA/protein isolation and RT-qPCR/western blotting was performed, as described above.

[5] = system: PR target genes (MSX2, RGS2, MAP1A, PDK4) in MCF-7 cells; test: RT-qPCR of PR target genes in MCF-7 cells stably expressing WT or KR PR; type: cell-based, human; conditions: R5020 10^−8 M plus RU486 10^−7 M, 6 h
[6] = system: BT-474 tumor; conditions: xenograft models; cited from earlier work

CC#C[C@]1(O)CC[C@H]2[C@@H]3CCC4=CC(=O)CCC4=C3[C@@H](c3ccc(N(C)C)cc3)C[C@@]21C [RU486, (10S,11S,14S,15S,17R)-17-[4-(dimethylamino)phenyl]-14-hydroxy-15-methyl-14-(prop-1-yn-1-yl)tetracyclo[8.7.0.0^ {2,7}.0^{11,15}]heptadeca-1,6-dien-5-one]
outcome of phase II clinical trials as a breast cancer treatment [1]: unsuccessful
expression of progesterone-regulated PR target genes ([2]; T47D cells expressing SUMO-deficient PR (KR), antiprogestin 10^−7 M alone or plus progesterone 10^−8 M, 6 h): caused many PR target genes to become upregulated
number of genes significantly differentially expressed between KR and WT cells ([2]; both cell lines co-treated with progesterone plus the antiprogestin): 7 genes
significant differential expression of the 15 biomarker genes between KR and WT cells ([2]; both cell lines co-treated with progesterone plus the antiprogestin, with the exception of one gene (CDH10)): completely annulled
agonistic activity ([2]; cells expressing hyperactive / SUMO-deficient PR (KR)): substantial agonistic activity; also recorded: agonistic properties
BT-474 cell proliferation [3]: significantly blocks
R5020-induced expression of CHN2, RGS2 and ACOT6 [4]: entirely blocked
R5020-induced mRNA expression of MSX2, RGS2, MAP1A and PDK4 [5]: completely abolished
BT-474 tumor growth [6]: dramatically inhibits
